Reference: a melting point compilation (Tetko et al.)

Structure (SMILES)	melting point [°C]
COC(=O)c1ccc2ccn(C)c2c1	91 to 93
Cc1ncsc1C(=O)NC1CCNCC1	136 to 138
COCCSc1ccc([N+](=O)[O-])cc1C(=O)O	159 to 161
CN1C(=O)CNC1=O	177 to 179
CC1CCC2(CC1)NC(=O)N(N)C2=O (centres undefined)	118 to 120
COCCOc1ncccc1C(=O)O	58 to 60
O=C1CCc2cc(F)c([N+](=O)[O-])cc2N1	154 to 156
O=C(Nc1ccc(O)cc1)c1ccsc1	207 to 209
CCc1cc(O)ncc1Br	109 to 111
CC(=O)c1ccc(OCC(=O)N2CCCC2)cc1	122 to 124
c1ccc2nn(C3CCNC3)cc2c1 (centres undefined)	79 to 81
Cc1ccc(NS(=O)(=O)c2cccc(C(=O)O)c2)c(C)c1	194 to 196
CN(C)C(=O)Sc1ccc2c(c1)CCCC2=O	99 to 101
c1cc2[nH]nnc2cn1	240 to 242
CNS(=O)(=O)c1ccc(C(=O)O)cc1	246 to 250
O=C(O)c1cc(S(=O)(=O)Cl)cc(Cl)c1F	169 to 171
O=C(O)CCc1nnc(-c2ccccc2I)o1	84 to 86
Fc1ccc(F)c2c(Cl)ccnc12	154 to 156
Cc1ccc(-c2csc(NC(=O)CCl)n2)cc1	169 to 171
COc1ccc(-c2nn(-c3ccccc3)cc2CC(=O)O)cc1	161 to 163
N#Cc1ccc(S)c(Cl)c1	81 to 83
O=C(O)CS(=O)(=O)c1ccc(Br)cc1	145 to 147
CNc1ccc([N+](=O)[O-])c2nonc12	257 to 259
O=C(O)C1CCCN(C(=O)c2ccc(Cl)c(Cl)c2)C1 (centres undefined)	163 to 165
Cc1c(C(=O)O)cnn1-c1cccc(C(F)(F)F)c1	122 to 124
O=C1CC(c2ccccc2)=NN1	246 to 248

Structure (SMILES)	melting point [°C]
O=C(CCl)NC1CCS(=O)(=O)C1 (centres undefined)	89 to 98
Cc1cc(Br)cc(C=O)c1OC(F)F	46 to 48
Oc1cc(Br)ccc1C(F)(F)F	89 to 91
Cc1ccc(Oc2ncccc2C#N)c(Br)c1	116 to 118
CCCc1cc(N)n(C)n1	68 to 70
CC1Cc2ccccc2N1c1ccccc1C(=O)O (centres undefined)	124 to 126
N#Cc1cc2c([nH]c1=O)CCCC2	246 to 248
N#CCCn1cc(C=O)c(-c2ccccc2)n1	74 to 76
Cc1cc(NC(=O)Nc2cc(C)nn2C)n(C)n1	209 to 211
CC1CN(C(=O)c2cnn(C)c2N)CC(C)O1 (centres undefined)	152 to 154
CN1CCCN(C(=O)c2ccccc2N)CC1	80 to 82
O=C1CC(NC(=O)C(F)(F)F)c2ccccc21 (centres undefined)	149 to 151
CCOC(=O)c1c(C)[nH]c(C=O)c1C	162 to 164
NCC(c1ccc(Cl)cc1Cl)c1c[nH]c2ccccc12 (centres undefined)	130 to 132
CCOC(=O)C1=C(CBr)C(C)(C)OC1=O	87 to 89
Nc1cc(CCc2ccco2)no1	67 to 69
NS(=O)(=O)c1ccccc1O	135 to 137
Cc1nc2cc(F)cc(C(=O)O)c2nc1C	226 to 228
Cc1ccnc(Oc2cc(N)ccc2C)c1	76 to 78
CC(NC(=O)c1ccc(Cl)cc1)C(=O)O (centres undefined)	158 to 160
N#CC1(N)CCN(Cc2ccccc2)CC1	67 to 69
O=C(O)CC(NC(=O)c1ccccc1)c1ccccc1 (centres undefined)	197 to 199
CCCC(CN)C(=O)O (centres undefined)	219 to 221
O=C(O)c1cn(-c2cccc(Cl)c2F)nn1	139 to 141
O=Cc1cnc(N2CCOCC2)nc1	147 to 149
Cn1nnnc1S(C)(=O)=O	64 to 66

Structure (SMILES)	melting point [°C]
Cc1cccc(C(N)CC(=O)O)c1C (centres undefined)	211 to 213
CCN1CCN(C(=O)c2ccc(N)cc2)CC1	125 to 127
Cc1noc(C)c1C(C)C(=O)O (centres undefined)	101 to 103
O=C(O)C(Oc1ccccc1Br)c1ccccc1 (centres undefined)	143 to 145
Brc1cnn(-c2cccnc2)c1	126 to 128
O=C(CCl)N(c1ccccc1)C1CCS(=O)(=O)C1 (centres undefined)	208 to 210
O=C(O)C1Cc2ccccc2N1 (centres undefined)	168 to 170
COc1ccccc1C(C)N(C)C(=O)CCl (centres undefined)	66 to 68
O=C(O)c1cc(S(=O)(=O)Cl)ccc1F	107 to 109
CN1CCN(C(=O)CC#N)CC1	118 to 120
CC(C)NC(=O)CN1CCCNCC1	43 to 45
C#CCN1CCCCC1C(=O)O (centres undefined)	177 to 179
CC(C)c1cc(Br)ccc1O	48 to 50
O=C(c1ccc(Br)cc1)N1CCNCC1	79 to 81
CNCC(=O)Nc1ccc(Cl)cc1	58 to 60
O=C(O)c1cc(Cl)cc([N+](=O)[O-])c1	146 to 148
Cc1noc(C)c1COc1cccc(C(=O)O)c1	157 to 159
Cc1c(C(=O)O)cnn1CCOC1CCCCO1 (centres undefined)	139 to 141
CS(=O)(=O)c1cccc(NN)c1	93 to 95
Cc1nn(CC(F)(F)F)cc1C(=O)O	119 to 121
Cc1nc(C(=O)O)c(C)s1	172 to 174
CC(c1nnc(S)n1-c1ccc(F)cc1)N1CCCCC1 (centres undefined)	115 to 117
O=C(O)C1CCCc2ccccc21 (centres undefined)	84 to 86
C=CCc1cc(C(=O)O)cc(OC)c1OC	124 to 126
Brc1cc[nH]n1	74 to 76
CS(=O)(=O)c1ccc(S(N)(=O)=O)cc1	246 to 248

Structure (SMILES)	melting point [°C]
N#Cc1cc2c([nH]c1=O)CCC2	219 to 221
O=C(O)CNCc1cccc(Br)c1	213 to 215
Nc1ccc(S(=O)(=O)NCc2ccc(Cl)cc2)cc1	174 to 176
NS(=O)(=O)c1cnn(CCC(=O)O)c1	126 to 128
O=C(CCl)Nc1ccccc1C(=O)O	185 to 187
COCCCn1cc(C(=O)c2cc(F)ccc2O)cc(C#N)c1=O	126 to 128
O=C(CCCl)NC(=O)NCC(F)(F)F	145 to 147
Fc1ccc(-n2c(S)nc3ccccc32)c(F)c1	191 to 193
NC1(C(=O)O)CCOc2ccccc21 (centres undefined)	239 to 241
FC(F)(F)c1nc(Cl)c2cc(Br)ccc2n1	101 to 103
O=C(O)CN1C(=O)COc2ccccc21	229 to 231
Cc1ccc(-c2cnc(CCl)o2)cc1	58 to 60
CC1(c2ccc(F)cc2)NC(=O)NC1=O (centres undefined)	204 to 206
N#Cc1ccc(CCC(=O)O)cc1	137 to 139
CN(CC(=O)O)c1ccccc1[N+](=O)[O-]	69 to 71
CC(C)c1cccc(-c2ccc(C(=O)O)o2)c1	84 to 86
CCC(CO)NC(=O)Cc1ccc(N)cc1 (centres undefined)	107 to 109
CNCC(=O)N(C)c1ccccn1	108 to 110
Oc1cccc(Oc2cccnc2)c1	109 to 111
O=C(O)CCCc1nc(-c2ccc(Cl)cc2)no1	108 to 110
CC(C(=O)O)C(NC(=O)OC(C)(C)C)c1ccccc1 (centres undefined)	71 to 73
O=C(O)CCn1nnnc1S	156 to 158
CN1CCN(C(=O)c2ccc(C#N)cn2)CC1	83 to 85
Cc1c(F)cc(C(=O)O)cc1S(=O)(=O)Cl	179 to 181
O=C(O)CCCc1ccc(O)cc1	106 to 108
NC(=Nc1ccccc1)N1CCCCC1	61 to 63
